Source: ChEMBL document CHEMBL1150748, “Isolation of the antimicrobial alkaloid stemmadenine from Iraqi Rhazya stricta” (1988)
Values after ≈ are worked out from the molar mass of the structure shown.

How the values were obtained:
Type in all cases: functional
Pseudomonas aeruginosa = assay: Antimicrobial activity against Pseudomonas aeruginosa ATCC 9027
Staphylococcus aureus = assay: Antimicrobial activity against Staphylococcus aureus ATCC 6538
Escherichia coli = assay: Antimicrobial activity against Escherichia coli ATCC 8739
Candida albicans = assay: Antimicrobial activity against Candida albicans ATCC 10231

Compound	MIC (Pseudomonas aeruginosa) [µg/mL]	MIC (Staphylococcus aureus) [µg/mL]	MIC (Escherichia coli) [µg/mL]	MIC (Candida albicans) [µg/mL]
THIMEROSAL	1.5	0.2	0.6	0.1
CC(=O)O.CC(=O)O.NC(=N\CCCCCC/N=C(N)/N=C(\N)Nc1ccc(Cl)cc1)/N=C(\N)Nc1ccc(Cl)cc1 [CHLORHEXIDINE DIACETATE]	1.5	0.2	0.4	4.5
C/C=C1/CN2CCc3c([nH]c4ccccc34)[C@@](CO)(C(=O)OC)[C@@H]1CC2 [STEMMADENINE]	7.5 (≈ 21.2 µM)	5 (≈ 14.1 µM)	1.25 (≈ 3.53 µM)	37.5 (≈ 106 µM)
CCCCCCCCCCCCC[N+](C)(C)Cc1ccccc1.[Cl-] [BENZALKONIUM CHLORIDE]	8	0.32	2.8	1.8
